In the kinase profiling compilation of Christmann-Franck et al. (2016):

Assays:
Assay in all cases: radiometric filter-binding kinase assay, Kinase HotSpot
Details in all cases: compound 0.5 µM; ATP 10 µM
SGK2 (human) = SGK2 (human) (UniProt Q9HBY8)
CAMK2G (human) = CAMK2G (human) (UniProt Q13555)
MARK3 (human) = MARK3 (human) (UniProt P27448)
ACVR1 (human) = ACVR1 (human) (UniProt Q04771)
MYLK2 (human) = MYLK2 (human) (UniProt Q9H1R3)
MAP3K11 (human) = MAP3K11 (human) (UniProt Q16584)
EPHA3 (human) = EPHA3 (human) (UniProt P29320)
BRSK1 (human) = BRSK1 (human) (UniProt Q8TDC3)
EPHA5 (human) = EPHA5 (human) (UniProt P54756)
STK10 (human) = STK10 (human) (UniProt O94804)
PBK (human) = PBK (human) (UniProt Q96KB5)
GSK3A (human) = GSK3A (human) (UniProt P49840)
TGFBR2 (human) = TGFBR2 (human) (UniProt P37173)
CSNK1G2 (human) = CSNK1G2 (human) (UniProt P78368)
PRKG2 (human) = PRKG2 (human) (UniProt Q13237)
DAPK2 (human) = DAPK2 (human) (UniProt Q9UIK4)
NLK (human) = NLK (human) (UniProt Q9UBE8)
KDR (human) = KDR (human) (UniProt P35968)
EGFR (human) = EGFR (human) (UniProt P00533)
PASK (human) = PASK (human) (UniProt Q96RG2)
ERBB4 (human) = ERBB4 (human) (UniProt Q15303)
TAOK1 (human) = TAOK1 (human) (UniProt Q7L7X3)
ITK (human) = ITK (human) (UniProt Q08881)
RPS6KA1 KD1 KD2 (human) = RPS6KA1 KD1 KD2 (human) (UniProt Q15418)
MAP4K4 (human) = MAP4K4 (human) (UniProt O95819)
PAK4 (human) = PAK4 (human) (UniProt O96013)
TEC (human) = TEC (human) (UniProt P42680)
CDK3 CCNE1 (human) = CDK3 CCNE1 (human) (UniProt Q00526+P24864)
PRKD2 (human) = PRKD2 (human) (UniProt Q9BZL6)
HIPK4 (human) = HIPK4 (human) (UniProt Q8NE63)
TAOK3 (human) = TAOK3 (human) (UniProt Q9H2K8)
ABL2 (human) = ABL2 (human) (UniProt P42684)
NEK2 (human) = NEK2 (human) (UniProt P51955)
DCLK2 (human) = DCLK2 (human) (UniProt Q8N568)
MAPK12 (human) = MAPK12 (human) (UniProt P53778)
NEK1 (human) = NEK1 (human) (UniProt Q96PY6)
SRPK1 (human) = SRPK1 (human) (UniProt Q96SB4)
CAMK2D (human) = CAMK2D (human) (UniProt Q13557)
CDK6 CCND3 (human) = CDK6 CCND3 (human) (UniProt P30281+Q00534)

Chain of BRSK1 (human) (Q8TDC3 whole entry, looked up): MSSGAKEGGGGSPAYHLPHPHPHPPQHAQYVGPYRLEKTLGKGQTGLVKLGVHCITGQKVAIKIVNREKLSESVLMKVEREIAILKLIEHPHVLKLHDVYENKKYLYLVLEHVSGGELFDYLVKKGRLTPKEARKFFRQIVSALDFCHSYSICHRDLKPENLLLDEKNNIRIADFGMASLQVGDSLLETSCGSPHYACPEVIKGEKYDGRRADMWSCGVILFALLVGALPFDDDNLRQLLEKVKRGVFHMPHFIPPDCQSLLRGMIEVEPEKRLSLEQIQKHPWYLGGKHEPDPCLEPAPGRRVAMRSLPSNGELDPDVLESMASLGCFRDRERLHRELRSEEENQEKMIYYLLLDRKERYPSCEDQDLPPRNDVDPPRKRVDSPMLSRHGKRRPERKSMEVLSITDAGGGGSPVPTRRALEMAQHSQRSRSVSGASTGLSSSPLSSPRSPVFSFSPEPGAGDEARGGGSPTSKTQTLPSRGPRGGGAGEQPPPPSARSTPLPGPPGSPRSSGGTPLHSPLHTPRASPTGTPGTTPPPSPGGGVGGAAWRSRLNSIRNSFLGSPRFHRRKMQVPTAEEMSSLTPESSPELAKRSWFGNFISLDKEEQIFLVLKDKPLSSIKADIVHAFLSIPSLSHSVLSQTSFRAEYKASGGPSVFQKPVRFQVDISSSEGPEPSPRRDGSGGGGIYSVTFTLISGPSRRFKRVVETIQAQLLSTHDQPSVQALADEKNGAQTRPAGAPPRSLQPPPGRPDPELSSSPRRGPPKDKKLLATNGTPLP
Chain of MAPK12 (human) (P53778 whole entry, looked up): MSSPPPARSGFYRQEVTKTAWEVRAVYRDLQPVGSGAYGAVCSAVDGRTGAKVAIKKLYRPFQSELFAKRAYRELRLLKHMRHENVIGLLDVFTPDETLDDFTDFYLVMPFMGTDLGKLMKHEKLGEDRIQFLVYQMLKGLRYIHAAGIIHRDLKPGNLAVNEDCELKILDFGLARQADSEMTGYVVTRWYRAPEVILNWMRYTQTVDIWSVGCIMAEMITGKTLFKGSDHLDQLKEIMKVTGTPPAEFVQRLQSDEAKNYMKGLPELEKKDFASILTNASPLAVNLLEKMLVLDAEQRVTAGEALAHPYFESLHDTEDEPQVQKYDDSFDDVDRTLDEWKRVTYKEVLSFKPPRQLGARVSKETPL
Chain of TGFBR2 (human) (P37173 whole entry, looked up): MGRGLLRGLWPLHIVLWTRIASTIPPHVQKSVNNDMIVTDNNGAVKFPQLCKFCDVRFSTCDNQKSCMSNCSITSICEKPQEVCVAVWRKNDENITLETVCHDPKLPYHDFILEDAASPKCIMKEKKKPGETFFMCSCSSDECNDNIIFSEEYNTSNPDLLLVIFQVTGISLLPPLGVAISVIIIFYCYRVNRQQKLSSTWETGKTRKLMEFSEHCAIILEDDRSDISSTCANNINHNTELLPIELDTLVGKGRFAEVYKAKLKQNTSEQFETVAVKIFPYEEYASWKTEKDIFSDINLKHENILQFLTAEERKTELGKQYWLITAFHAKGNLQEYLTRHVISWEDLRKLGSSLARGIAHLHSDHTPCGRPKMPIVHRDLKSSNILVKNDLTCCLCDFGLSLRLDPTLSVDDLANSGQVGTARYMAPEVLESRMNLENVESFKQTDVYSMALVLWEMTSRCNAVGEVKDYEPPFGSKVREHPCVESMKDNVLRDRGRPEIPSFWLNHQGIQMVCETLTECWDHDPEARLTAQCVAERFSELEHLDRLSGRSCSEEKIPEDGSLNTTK
Chain of CDK3 CCNE1 (human) (P24864 whole entry, looked up): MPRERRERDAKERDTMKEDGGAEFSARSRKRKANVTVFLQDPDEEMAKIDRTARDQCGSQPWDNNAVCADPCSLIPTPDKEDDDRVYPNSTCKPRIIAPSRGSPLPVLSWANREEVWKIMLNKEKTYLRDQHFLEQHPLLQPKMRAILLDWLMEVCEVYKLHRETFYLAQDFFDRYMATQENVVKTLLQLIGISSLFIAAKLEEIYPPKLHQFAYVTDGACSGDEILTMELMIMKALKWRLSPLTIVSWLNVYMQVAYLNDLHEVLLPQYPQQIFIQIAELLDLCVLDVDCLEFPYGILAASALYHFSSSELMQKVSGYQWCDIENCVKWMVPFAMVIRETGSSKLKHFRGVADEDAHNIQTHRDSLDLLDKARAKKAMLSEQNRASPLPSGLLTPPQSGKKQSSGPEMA
Chain of CDK3 CCNE1 (human) (Q00526 whole entry, looked up): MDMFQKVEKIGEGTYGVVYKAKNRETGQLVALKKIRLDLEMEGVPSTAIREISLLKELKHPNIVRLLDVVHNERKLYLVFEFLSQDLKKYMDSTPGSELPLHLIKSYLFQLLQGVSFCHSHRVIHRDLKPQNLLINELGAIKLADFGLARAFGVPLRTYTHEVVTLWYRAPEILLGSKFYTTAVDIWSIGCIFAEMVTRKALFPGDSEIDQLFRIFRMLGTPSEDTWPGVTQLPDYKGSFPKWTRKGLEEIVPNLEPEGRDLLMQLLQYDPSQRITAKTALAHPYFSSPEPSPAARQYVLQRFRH
Chain of EPHA5 (human) (P54756 whole entry, looked up): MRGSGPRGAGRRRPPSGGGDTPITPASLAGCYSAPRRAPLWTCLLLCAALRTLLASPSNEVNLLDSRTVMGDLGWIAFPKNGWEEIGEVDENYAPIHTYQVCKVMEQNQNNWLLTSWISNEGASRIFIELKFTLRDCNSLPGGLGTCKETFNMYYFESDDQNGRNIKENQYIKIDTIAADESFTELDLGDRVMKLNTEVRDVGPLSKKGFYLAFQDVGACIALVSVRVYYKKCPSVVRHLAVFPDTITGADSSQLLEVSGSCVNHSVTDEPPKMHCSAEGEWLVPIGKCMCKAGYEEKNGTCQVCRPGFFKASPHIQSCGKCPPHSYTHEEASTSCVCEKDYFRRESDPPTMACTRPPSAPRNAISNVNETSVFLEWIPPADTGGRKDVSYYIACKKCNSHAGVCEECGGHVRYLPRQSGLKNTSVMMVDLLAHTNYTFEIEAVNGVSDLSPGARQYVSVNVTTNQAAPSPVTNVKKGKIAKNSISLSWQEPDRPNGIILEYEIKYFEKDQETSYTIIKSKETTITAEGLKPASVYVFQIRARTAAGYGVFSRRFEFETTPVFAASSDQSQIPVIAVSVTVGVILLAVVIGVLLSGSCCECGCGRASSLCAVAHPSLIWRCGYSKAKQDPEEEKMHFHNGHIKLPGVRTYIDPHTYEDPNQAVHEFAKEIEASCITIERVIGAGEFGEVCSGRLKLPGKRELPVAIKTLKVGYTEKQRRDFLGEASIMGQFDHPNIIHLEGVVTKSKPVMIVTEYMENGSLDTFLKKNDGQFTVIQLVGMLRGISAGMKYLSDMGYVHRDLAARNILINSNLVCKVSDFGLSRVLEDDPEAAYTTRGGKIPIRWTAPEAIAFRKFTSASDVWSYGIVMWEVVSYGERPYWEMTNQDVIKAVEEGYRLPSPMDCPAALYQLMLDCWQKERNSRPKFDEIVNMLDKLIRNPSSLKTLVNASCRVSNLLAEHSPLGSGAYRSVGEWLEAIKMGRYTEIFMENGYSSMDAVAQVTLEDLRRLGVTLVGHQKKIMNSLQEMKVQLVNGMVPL
Chain of PRKD2 (human) (Q9BZL6 whole entry, looked up): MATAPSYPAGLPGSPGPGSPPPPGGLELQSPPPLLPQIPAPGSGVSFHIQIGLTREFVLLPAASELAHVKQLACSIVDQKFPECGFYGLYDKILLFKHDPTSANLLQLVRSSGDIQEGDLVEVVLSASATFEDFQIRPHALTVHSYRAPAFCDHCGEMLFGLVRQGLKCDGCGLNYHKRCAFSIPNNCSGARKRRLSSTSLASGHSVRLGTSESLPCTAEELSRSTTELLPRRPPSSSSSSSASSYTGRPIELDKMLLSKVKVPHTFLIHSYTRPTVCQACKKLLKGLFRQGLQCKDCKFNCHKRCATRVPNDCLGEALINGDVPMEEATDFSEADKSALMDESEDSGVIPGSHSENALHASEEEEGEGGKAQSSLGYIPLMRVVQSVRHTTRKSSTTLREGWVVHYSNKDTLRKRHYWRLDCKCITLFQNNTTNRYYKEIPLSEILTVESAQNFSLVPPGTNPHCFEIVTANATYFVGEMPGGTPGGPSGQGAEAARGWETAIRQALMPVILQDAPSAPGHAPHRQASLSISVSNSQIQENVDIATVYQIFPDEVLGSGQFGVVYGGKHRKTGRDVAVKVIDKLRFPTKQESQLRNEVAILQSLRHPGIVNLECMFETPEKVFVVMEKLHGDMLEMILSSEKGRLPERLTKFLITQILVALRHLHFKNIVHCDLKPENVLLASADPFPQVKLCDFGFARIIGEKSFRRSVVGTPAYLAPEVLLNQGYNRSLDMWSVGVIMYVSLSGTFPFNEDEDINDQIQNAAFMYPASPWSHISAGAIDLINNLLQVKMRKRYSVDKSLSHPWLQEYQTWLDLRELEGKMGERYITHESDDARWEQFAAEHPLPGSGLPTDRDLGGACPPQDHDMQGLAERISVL
Chain of TEC (human) (P42680 whole entry, looked up): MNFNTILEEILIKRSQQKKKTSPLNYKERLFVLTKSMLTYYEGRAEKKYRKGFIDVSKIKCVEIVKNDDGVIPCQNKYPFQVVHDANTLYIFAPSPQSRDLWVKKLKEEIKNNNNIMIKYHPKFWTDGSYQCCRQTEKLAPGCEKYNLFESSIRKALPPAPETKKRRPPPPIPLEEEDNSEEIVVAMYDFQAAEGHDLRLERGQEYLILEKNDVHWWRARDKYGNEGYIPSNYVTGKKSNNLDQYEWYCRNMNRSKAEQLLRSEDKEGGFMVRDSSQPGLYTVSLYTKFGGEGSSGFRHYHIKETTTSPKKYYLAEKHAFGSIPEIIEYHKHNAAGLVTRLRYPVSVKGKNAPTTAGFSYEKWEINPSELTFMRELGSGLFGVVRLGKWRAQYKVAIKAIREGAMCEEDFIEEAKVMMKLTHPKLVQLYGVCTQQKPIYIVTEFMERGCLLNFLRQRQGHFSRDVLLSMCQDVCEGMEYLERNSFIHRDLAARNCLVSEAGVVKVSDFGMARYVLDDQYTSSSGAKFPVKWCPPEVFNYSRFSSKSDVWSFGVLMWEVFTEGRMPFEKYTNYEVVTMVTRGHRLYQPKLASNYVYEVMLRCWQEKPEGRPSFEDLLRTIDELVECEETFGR

SMILES	residual activity (SGK2 (human))	residual activity (CAMK2G (human))	residual activity (MARK3 (human))	residual activity (ACVR1 (human))	residual activity (MYLK2 (human))	residual activity (MAP3K11 (human))	residual activity (EPHA3 (human))	residual activity (BRSK1 (human))	residual activity (EPHA5 (human))	residual activity (STK10 (human))	residual activity (PBK (human))	residual activity (GSK3A (human))	residual activity (TGFBR2 (human))	residual activity (CSNK1G2 (human))	residual activity (PRKG2 (human))	residual activity (DAPK2 (human))	residual activity (NLK (human))	residual activity (KDR (human))	residual activity (EGFR (human))	residual activity (PASK (human))	further results
COc1cc2ncnc(Nc3ccc(OCc4ccccc4)cc3)c2cc1OC	100%	94.2%	106%	101%	97.5%	92.2%	98.1%	103%	105%	68.2%	109%	104%	121%	98.4%	104%	99.9%	96.5%	96.8%	21.3%	98.6%	residual activity (ERBB4 (human)): 9.19%; residual activity (TAOK1 (human)): 94.4%; residual activity (ITK (human)): 96.2%; residual activity (RPS6KA1 KD1 KD2 (human)): 90.2%; residual activity (MAP4K4 (human)): 103%; residual activity (PAK4 (human)): 103%; residual activity (TEC (human)): 106%; residual activity (CDK3 CCNE1 (human)): 96.3%; residual activity (PRKD2 (human)): 101%; residual activity (HIPK4 (human)): 100%; residual activity (TAOK3 (human)): 91.7%; residual activity (ABL2 (human)): 101%; residual activity (NEK2 (human)): 107%; residual activity (DCLK2 (human)): 102%; residual activity (MAPK12 (human)): 102%; residual activity (NEK1 (human)): 104%; residual activity (SRPK1 (human)): 105%; residual activity (CAMK2D (human)): 95.8%; residual activity (CDK6 CCND3 (human)): 97.8%
CN(C)CCCn1cc(C2=C(c3c[nH]c4ccccc34)C(=O)NC2=O)c2ccccc21	74.4%	73.3%	72%	96.3%	73.9%	61%	93%	76.9%	92%	19.4%	81.3%	11.2%	90.4%	90.3%	38.7%	105%	94%	65.5%	94%	67%	residual activity (ERBB4 (human)): 87.7%; residual activity (TAOK1 (human)): 80.8%; residual activity (ITK (human)): 102%; residual activity (RPS6KA1 KD1 KD2 (human)): 4.67%; residual activity (MAP4K4 (human)): 55.9%; residual activity (PAK4 (human)): 93.6%; residual activity (TEC (human)): 116%; residual activity (CDK3 CCNE1 (human)): 93.2%; residual activity (PRKD2 (human)): 78.8%; residual activity (HIPK4 (human)): 113%; residual activity (TAOK3 (human)): 67.6%; residual activity (ABL2 (human)): 96.3%; residual activity (NEK2 (human)): 96.2%; residual activity (DCLK2 (human)): 95%; residual activity (MAPK12 (human)): 95.9%; residual activity (NEK1 (human)): 92.5%; residual activity (SRPK1 (human)): 87%; residual activity (CAMK2D (human)): 38.7%; residual activity (CDK6 CCND3 (human)): 73.3%
COc1ccc(Cl)cc1NC(=O)Nc1cc(C)nc2ccccc12	96.3%	91.6%	126%	76.2%	99.3%	89%	99.1%	92.8%	123%	90.9%	98.5%	124%	111%	98.5%	105%	99.1%	94.5%	92.8%	98%	97.6%	residual activity (ERBB4 (human)): 97.8%; residual activity (TAOK1 (human)): 103%; residual activity (ITK (human)): 96%; residual activity (RPS6KA1 KD1 KD2 (human)): 77.8%; residual activity (MAP4K4 (human)): 84.7%; residual activity (PAK4 (human)): 77.9%; residual activity (TEC (human)): 110%; residual activity (CDK3 CCNE1 (human)): 93.6%; residual activity (PRKD2 (human)): 99.8%; residual activity (HIPK4 (human)): 109%; residual activity (TAOK3 (human)): 105%; residual activity (ABL2 (human)): 91.2%; residual activity (NEK2 (human)): 106%; residual activity (DCLK2 (human)): 96.5%; residual activity (MAPK12 (human)): 101%; residual activity (NEK1 (human)): 96.3%; residual activity (SRPK1 (human)): 82.5%; residual activity (CAMK2D (human)): 98.2%; residual activity (CDK6 CCND3 (human)): 99%
